Test systems include KM12; TK-10; Malme-3M; COLO 205; OVCAR-5; SNB-75; RXF 393; NCI-H23; SK-OV-3; SW-620; M14; HT-29; LOX IMVI; UO-31; 786-0; MDA-MB-231; MCF7; MDA-MB-435; T47D.
Common to all, as to test: growth of human tumour cells (NCI), 48 h

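Five concentrations, 48 hours, 96-well plates. GI50 marks 50% less growth.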 Active and inactive are the calls of the source. Rule as the data show it: active = GI50 up to about 1.1 µM and inactive = higher.

With `CC1(c2ccccc2Cl)C(C#N)C(=O)NC(=O)C1C#N` (stereo not drawn), the GI50 in the assay on KM12 is > 10 µM (inactive); with TK-10, > 100 µM (inactive); with Malme-3M, 35.5 µM (inactive); in the assay with COLO 205, 45 µM (inactive); in the assay with OVCAR-5, 91 µM (inactive); in the assay with SNB-75, 24.8 µM (inactive). Besides, the GI50 in the assay with RXF 393 is 27.9 µM (inactive); with NCI-H23 it was 33.3 µM (inactive); with SK-OV-3, 34.6 µM (inactive); with SW-620, 43.8 µM (inactive); with M14 it was 42.6 µM (inactive); in the assay on HT-29, 36.6 µM (inactive). In addition, the values for the GI50 in the assay on LOX IMVI, in the assay on UO-31 and in the assay with 786-0 were 40.1 µM (inactive), 27.5 µM (inactive) and 45.6 µM (inactive), respectively.
As for `COC1=CC(=O)C(O)=C(CC2(C)C(C)CCC3(C)C2CCCC3(C)C)C1=O` (stereo not drawn), the GI50 in the assay on KM12 was 6.44 µM (inactive); in the assay with TK-10, 4.97 µM (inactive); in the assay with Malme-3M, 4.03 µM (inactive); with COLO 205 it was 5.51 µM (inactive); in the assay with OVCAR-5 it was 10.3 µM (inactive); in the assay on SNB-75, 3.89 µM (inactive). Also, the GI50 in the assay on RXF 393 is 2.31 µM (inactive); in the assay on NCI-H23 it was 2.84 µM (inactive); with SK-OV-3, 18.2 µM (inactive); in the assay with SW-620, 4.03 µM (inactive); in the assay on M14 it was 2.18 µM (inactive); in the assay on HT-29 it was 10.3 µM (inactive). In addition, the figures for the GI50 in the assay with LOX IMVI, with UO-31 and in the assay with 786-0 were 4.6 µM (inactive), 4.49 µM (inactive) and 3.86 µM (inactive), respectively.
For the compound `O=c1c2c(c1=O)C1(SCCCS1)c1cc(Cl)ccc1O2`, the GI50 in the assay with KM12, in the assay on TK-10, with Malme-3M, in the assay with COLO 205, in the assay on OVCAR-5 and in the assay with SNB-75 was > 100 µM (inactive) each time. Besides, the GI50 in the assay on RXF 393, in the assay with NCI-H23, with SK-OV-3, with SW-620, with M14 and with HT-29 was > 100 µM (inactive) in each case. Moreover, the GI50 with LOX IMVI, in the assay with UO-31, with MDA-MB-231, in the assay on MCF7, in the assay with 786-0 and with MDA-MB-435 was > 100 µM (inactive) in each case.
`COc1ccc(/C=c2/sc3n(c2=O)NC2(CCC(C)CC2)NN=3)cc1` (stereo not drawn): the GI50 with KM12, with TK-10, in the assay with Malme-3M, in the assay with COLO 205, with OVCAR-5 and in the assay with SNB-75 was > 100 µM (inactive) in each case. In addition, the GI50 in the assay with RXF 393, in the assay with NCI-H23, in the assay on SK-OV-3, in the assay on SW-620, with M14 and in the assay with HT-29 was > 100 µM (inactive) each time. The GI50 with LOX IMVI, in the assay with UO-31 and in the assay on 786-0 was > 100 µM (inactive) in each case.
Turning to `COc1ccc([Se]c2ccc(OC)cc2OC)c(OC)c1`, the GI50 in the assay on KM12 was 17.4 µM (inactive); with TK-10, 28.4 µM (inactive); in the assay with Malme-3M it was 14.9 µM (inactive); in the assay on COLO 205 it was 11.4 µM (inactive); in the assay on OVCAR-5 it was > 100 µM (inactive); with SNB-75, 9.02 µM (inactive). Moreover, the GI50 in the assay with RXF 393 is 18.2 µM (inactive); with NCI-H23, 29.9 µM (inactive); in the assay on SK-OV-3 it was 34.3 µM (inactive); with SW-620 it was 4.66 µM (inactive); in the assay with M14 it was 18.4 µM (inactive); in the assay with HT-29 it was 4.58 µM (inactive). The GI50 was 24.6 µM (inactive) in the assay on LOX IMVI, 18 µM (inactive) in the assay on UO-31 and 40.5 µM (inactive) in the assay on 786-0.
For `COC(=O)C1C2CC3C(OC(=O)C31)C2I` (stereo not drawn), the GI50 in the assay on KM12 was > 100 µM (inactive); in the assay with TK-10 it was > 10 µM (inactive); in the assay with Malme-3M, > 100 µM (inactive); in the assay with COLO 205 it was > 100 µM (inactive); with OVCAR-5, > 100 µM (inactive); with SNB-75, > 100 µM (inactive). For the same compound, the GI50 in the assay with RXF 393 was > 10 µM (inactive); with NCI-H23, > 100 µM (inactive); with SK-OV-3, > 100 µM (inactive); with SW-620, > 100 µM (inactive); with M14, > 100 µM (inactive); in the assay on HT-29, > 100 µM (inactive). Besides, the GI50 in the assay with LOX IMVI, with UO-31 and with 786-0 was > 100 µM (inactive) each time.
Consider `CCOC(=O)c1[nH]c2cccc3c2c1CC(Br)C3=O` (stereo not drawn), for which the GI50 in the assay on KM12 is 15.8 µM (inactive); with T47D it was 15.9 µM (inactive); in the assay with TK-10, 14.6 µM (inactive); in the assay with Malme-3M it was 14.5 µM (inactive); with COLO 205, 14 µM (inactive); in the assay on OVCAR-5 it was 19 µM (inactive). Further, the GI50 in the assay on NCI-H23 was 17.6 µM (inactive); in the assay with SK-OV-3, 22.7 µM (inactive); with SW-620 it was 2.34 µM (inactive); in the assay on M14 it was 13.4 µM (inactive); in the assay on HT-29, 20 µM (inactive); with LOX IMVI, 15.7 µM (inactive). For the same compound, the GI50 was 6.21 µM (inactive) in the assay with UO-31; 18.5 µM (inactive) in the assay on MDA-MB-231; 22.5 µM (inactive) with MCF7; 4.72 µM (inactive) with 786-0; 11.7 µM (inactive) in the assay on MDA-MB-435.
For `CCCCNC(=S)N/C=C1\C(=O)Nc2ccccc2C1=O`, the GI50 in the assay on KM12, in the assay on T47D, in the assay with TK-10, with Malme-3M, with COLO 205 and in the assay with OVCAR-5 was > 10 µM (inactive) throughout. Further, the GI50 in the assay on RXF 393, in the assay on NCI-H23, in the assay on SW-620, in the assay on M14, with HT-29 and in the assay with UO-31 was > 10 µM (inactive) throughout. For the same compound, the GI50 with MDA-MB-231, in the assay on MCF7, in the assay on 786-0 and in the assay on MDA-MB-435 was > 10 µM (inactive) throughout.
Turning to `O=C1OCC(C(=O)c2cccc(O)c2)C1=O` (stereo not drawn), the GI50 in the assay with KM12, in the assay with TK-10, with Malme-3M, with COLO 205, with OVCAR-5 and in the assay with SNB-75 was > 100 µM (inactive) throughout. In addition, the GI50 with RXF 393, in the assay on NCI-H23, in the assay with SK-OV-3, with SW-620, in the assay on M14 and in the assay with HT-29 was > 100 µM (inactive) throughout. Moreover, the GI50 in the assay with LOX IMVI, in the assay with UO-31 and in the assay on 786-0 was > 100 µM (inactive) throughout.
Regarding `O=C(c1ccccc1)n1c2ccc(Br)cc2c2nc3ccccc3nc21`, the GI50 in the assay on KM12 is > 100 µM (inactive); in the assay on TK-10 it was > 100 µM (inactive); in the assay on Malme-3M it was > 100 µM (inactive); with COLO 205, > 100 µM (inactive); in the assay on OVCAR-5, > 100 µM (inactive); in the assay with SNB-75, 46.2 µM (inactive). The GI50 in the assay on RXF 393, in the assay on NCI-H23, with SW-620, in the assay on M14, with HT-29 and with LOX IMVI was > 100 µM (inactive) in each case. The GI50 in the assay on UO-31 is 45.8 µM (inactive); in the assay with MDA-MB-231, > 100 µM (inactive); with MCF7 it was 43.8 µM (inactive); with 786-0, 37.8 µM (inactive); in the assay with MDA-MB-435, > 100 µM (inactive).
`Cc1ccc(S(=O)(=O)N(/N=C/C=C/c2ccccc2)c2nnc(-c3ccccc3)c(-c3ccccc3)n2)cc1`: the GI50 with KM12 was 23 µM (inactive); in the assay with TK-10 it was 24.7 µM (inactive); with Malme-3M it was 30 µM (inactive); in the assay with COLO 205 it was 16.9 µM (inactive); with OVCAR-5, 41.2 µM (inactive); in the assay with SNB-75, 22.4 µM (inactive). The GI50 was 19 µM (inactive) in the assay with RXF 393; 15.8 µM (inactive) in the assay on NCI-H23; 34.5 µM (inactive) in the assay with SK-OV-3; 30.4 µM (inactive) with SW-620; 20.8 µM (inactive) with M14; 0.619 µM (active) with HT-29. The GI50 is 21.5 µM (inactive) in the assay on LOX IMVI, 5.86 µM (inactive) in the assay with UO-31 and 20.8 µM (inactive) with 786-0.
As to `O=S(=O)(O)C(O)/C=C/c1ccccc1` (stereo not drawn), the GI50 in the assay with KM12, in the assay on TK-10, with Malme-3M, in the assay with COLO 205, with OVCAR-5 and in the assay with SNB-75 was > 100 µM (inactive) throughout. The GI50 in the assay with RXF 393, in the assay with NCI-H23, in the assay with SK-OV-3, in the assay with SW-620, in the assay on M14 and in the assay on HT-29 was > 100 µM (inactive) throughout. For the same compound, the GI50 in the assay on LOX IMVI is 49.3 µM (inactive); with UO-31, > 100 µM (inactive); with 786-0, > 100 µM (inactive).
